Source: article PMC9797592, “TJ-M2010-5, a novel CNS drug candidate, attenuates acute cerebral ischemia-reperfusion injury through the MyD88/NF-κB and ERK pathway” (Frontiers in Pharmacology, 2022)
Read-outs that look alike come from different tables or passages of the source.

Key:
[1] = test system: SH-SY5Y cells; test: CCK-8 cell viability assay, SH-SY5Y; type: cell-based
Experimental: BV-2 and SH-SY5Y cells were seeded in a 96-well plate at a density of 1 × 10^4 cells/well. Twenty-4 hours later, different concentrations of TJ-5 (0, 1, 5, 10, 20, and 30 μM) were added and co-cultured with cells for 24 h. Cell Counting Kit-8 (CCK8, Sigma, Shanghai, China) was used to measure cell viability. Experiments were conducted according to the manufacturer’s instructions. After incubation at 37°C for 2 h, absorbance was measured at 450 nm using a microplate reader (Synergy 2, BioTek Instruments, United States).

[2] = test system: LPS-stimulated BV-2 cells; test: LPS-stimulated BV-2 cell model: morphology and TNF-α/IL-6 ELISA; type: cell-based
Experimental: (§1) BV-2 microglial and SH-SY5Y cells were cultured as previously described ([Zhao et al., 2020]). A lipopolysaccharide (LPS)-stimulated BV-2 cell model was established to mimic severe neuroinflammation induced by multiple inflammatory mediators after reperfusion ([Li et al., 2021]). BV-2 cells were pretreated with different concentrations of TJ-5 for 2 h before LPS (1 μg/ml) stimulation (#L2880, Sigma, United States). Twenty-4 hours later, BV-2 cells and the culture supernatants were harvested for subsequent experiments. In addition, ST2825, a recognized MyD88 inhibitor, was used as positive control group.
Enzyme-linked immunosorbent assay (ELISA) kits were used to detect the levels of TNF-α, IL-1β, and IL-6 in the brain. Brain tissue was homogenized in 1 ml of phosphate-buffered saline using a tissue homogenizer. Then, the homogenates were centrifuged at 14,000 g for 10 min at 4 °C. The supernatant was immediately transferred for measurement following the manufacturer’s instructions. BV-2 cells were incubated with different treatments and the supernatants were collected and measured.

[3] = Drug concentration in serum and tissues by LC-MS, pharmacokinetics and BBB permeability; type: in vivo, mice; details: for concentration in CL brain: contralateral non-ischemic hemisphere; for concentration in CL brain / AUC(0-t) / concentration at 5 min / concentration at 10 min / concentration at 30 min / concentration at 1 h / concentration at 2 h / concentration at 6 h: mean ± SD; for Kp / half-life / AUC(0-t) / concentration at 5 min / concentration at 10 min / concentration at 30 min / concentration at 1 h / concentration at 2 h / concentration at 6 h: C57BL/6, mouse; for Kp / half-life / AUC(0-t): iv; for Kp: mean AUC0–6 h ratio, read-out: Kp (brain-serum ratio, AUCbrain/AUCserum); for half-life: read-out: t1/2 (elimination half-life) (converted); for AUC(0-t): read-out: AUC0–6 h; for concentration at 5 min / concentration at 10 min / concentration at 30 min / concentration at 1 h / concentration at 2 h / concentration at 6 h: intravenous
Experimental: The mice were intravenously injected with 15 mg/kg TJ-5 at the time of reperfusion 1 h after MCAO or Sham. The mice were then anesthetized at 5 min, 10 min, 30 min, 1 h, and 2 h, or 6 h post-dosing. Blood was collected to prepare serum samples, and the ipsilateral ischemic hemisphere (IL brain), contralateral non-ischemic hemisphere (CL brain), heart, and liver samples were obtained after transcardial perfusion with 0.9% saline. Liquid chromatography-mass spectrometry (LC-MS) was performed to determine the concentration of TJ-5 in the samples. The time-concentration curve, area under the curve (AUC), and pharmacokinetic (PK) parameters of TJ-5 were analyzed using the PKslover 2.0 PK software ([Zhang et al., 2010]). BBB permeability was evaluated using the brain-to-serum partition coefficient (Kp), which was calculated as AUCbrain/AUCserum.

[4] = test system: CIRI mice; test: Immunofluorescence staining (NeuN, TUNEL, Iba-1) of brain slices of CIRI mice; type: in vivo, C57BL/6 mice
Experimental: As mentioned previously, immunofluorescence staining was performed on paraffin-embedded brain slices ([Ye et al., 2020]). After standard histological procedures, the slices were treated with the TUNEL (terminal deoxynucleotidyl transferase dUTP nick end labeling) reaction mixture to detect apoptosis according to the manufacturer’s protocol (Roche, Germany). Furthermore, the slices were used for immunofluorescence with rabbit anti-NeuN antibody (1:300, CST) and rabbit anti-Iba-1 antibody (1:500, CST). After incubating overnight at 4°C, goat anti-rabbit IgG (1:1000) secondary antibodies were applied, and the brain slices were incubated for 2 h at room temperature. Finally, the slices were washed and labeled with 4′,6-diamidino-2-phenylindole for 10 min at room temperature. Images were captured using a fluorescence microscope.

[5] = test system: NF-κB p65; test: NF-κB p65 nuclear translocation in LPS-stimulated BV-2 cells, immunofluorescence; type: cell-based; details: 12 h after LPS stimulation
Experimental: as §1, with “Twenty-4 hours later, BV-2 cells and the culture supernatants were harvested for subsequent experiments.” left out
For BV-2 cells immunofluorescence staining, the cells were fixed with 4% paraformaldehyde for 10 min and permeabilized with 0.5% Triton X-100 for 10 min. After blocking with goat serum, the cells were sequentially incubated with the primary antibody, secondary antibody, and Hoechst in sequence. Images were captured using a confocal microscope. The fluorescence intensity was analyzed using ImageJ software.

## O=C(CCN1CCN(Cc2ccccc2)CC1)Nc1nc(-c2ccccc2)cs1 [TJ-5]
[1]; SH-SY5Y cells
  neurotoxicity: no neurotoxicity
[1]; concentrations below 20 μM, 24 h, CCK-8
  viability of SH-SY5Y cells: did not affect the viability
[2]; LPS-stimulated BV-2 cells, pretreatment 2 h, LPS 24 h, ELISA
  levels of TNF-α and IL-6 in supernatants: markedly reduced
[2]; pretreatment 2 h before LPS 1 μg/ml, 24 h
  activation (morphology) of LPS-stimulated BV-2 cells: inhibited
[3]; 15 mg/kg i.v. at reperfusion 1 h after MCAO, 5 min
  concentration in CL brain: 5877.53 ± 989.32 ng/g
[3]; 15 mg/kg i.v. at reperfusion 1 h after MCAO, 10 min
  concentration in CL brain: 5364.30 ± 749.83 ng/g
[3]; 15 mg/kg i.v. at reperfusion 1 h after MCAO, 30 min
  concentration in CL brain: 2480.87 ± 985.41 ng/g
[3]; 15 mg/kg i.v. at reperfusion 1 h after MCAO, 1 h
  concentration in CL brain: 1662.40 ± 117.03 ng/g
[3]; 15 mg/kg i.v. at reperfusion 1 h after MCAO, 2 h
  concentration in CL brain: 347.65 ± 55.25 ng/g
[3]; 15 mg/kg i.v. at reperfusion 1 h after MCAO, 6 h
  concentration in CL brain: 10.43 ± 5.69 ng/g
[3]; 15 mg/kg i.v., brain vs serum concentrations
  BBB permeability: good BBB permeability
[3]; CL brain (contralateral non-ischemic hemisphere) / serum, 15 mg/kg i.v., CL brain
  Kp: 5.21
[3]; IL brain (ipsilateral ischemic hemisphere) / serum, 15 mg/kg i.v., IL brain
  Kp: 5.58
[3]; brain (Sham) / serum, 15 mg/kg i.v., Sham brain
  Kp: 4.98
[3]; contralateral non-ischemic hemisphere (CL brain), 15 mg/kg i.v., CL brain
  half-life: 24.6 min
[3]; contralateral non-ischemic hemisphere (CL brain), 15 mg/kg i.v., CL brain, tissue density assumed 1 g/ml
  AUC(0-t): 4790 ± 353 ng·h/mL
[3]; 15 mg/kg i.v., Sham brain, 5 min, read-out: concentration in Sham brain
  concentration at 5 min: 6230 ± 436 ng/g
[3]; 15 mg/kg i.v., Sham brain, 10 min, read-out: concentration in Sham brain
  concentration at 10 min: 4900 ± 53.9 ng/g
[3]; 15 mg/kg i.v., Sham brain, 30 min, read-out: concentration in Sham brain
  concentration at 30 min: 2730 ± 256 ng/g
[3]; 15 mg/kg i.v., Sham brain, 1 h, read-out: concentration in Sham brain
  concentration at 1 h: 1580 ± 469 ng/g
[3]; 15 mg/kg i.v., Sham brain, 2 h, read-out: concentration in Sham brain
  concentration at 2 h: 268 ± 6.25 ng/g
[3]; 15 mg/kg i.v., Sham brain, 6 h, read-out: concentration in Sham brain
  concentration at 6 h: 18.7 ± 11 ng/g
[3]; 15 mg/kg i.v., heart, 5 min, read-out: concentration in heart
  concentration at 5 min: 5910 ± 825 ng/g
[3]; 15 mg/kg i.v., heart, 10 min, read-out: concentration in heart
  concentration at 10 min: 4590 ± 352 ng/g
[3]; 15 mg/kg i.v., heart, 30 min, read-out: concentration in heart
  concentration at 30 min: 4730 ± 2060 ng/g
[3]; 15 mg/kg i.v., heart, 1 h, read-out: concentration in heart
  concentration at 1 h: 1660 ± 335 ng/g
[3]; 15 mg/kg i.v., heart, 2 h, read-out: concentration in heart
  concentration at 2 h: 684 ± 199 ng/g
[3]; 15 mg/kg i.v., heart, 6 h, read-out: concentration in heart
  concentration at 6 h: 51.6 ± 11.9 ng/g
[3]; 15 mg/kg i.v., liver, 5 min, read-out: concentration in liver
  concentration at 5 min: 7160 ± 594 ng/g
[3]; 15 mg/kg i.v., liver, 10 min, read-out: concentration in liver
  concentration at 10 min: 5890 ± 528 ng/g
[3]; 15 mg/kg i.v., liver, 30 min, read-out: concentration in liver
  concentration at 30 min: 4710 ± 1130 ng/g
[3]; 15 mg/kg i.v., liver, 1 h, read-out: concentration in liver
  concentration at 1 h: 2960 ± 1030 ng/g
[3]; 15 mg/kg i.v., liver, 2 h, read-out: concentration in liver
  concentration at 2 h: 750 ± 249 ng/g
[3]; 15 mg/kg i.v., liver, 6 h, read-out: concentration in liver
  concentration at 6 h: 170 ± 36.1 ng/g
[3]; 15 mg/kg i.v., serum, 5 min, read-out: concentration in serum
  concentration at 5 min: 1190 ± 209 ng/mL
[3]; 15 mg/kg i.v., serum, 10 min, read-out: concentration in serum
  concentration at 10 min: 980 ± 203 ng/mL
[3]; 15 mg/kg i.v., serum, 30 min, read-out: concentration in serum
  concentration at 30 min: 472 ± 151 ng/mL
[3]; 15 mg/kg i.v., serum, 1 h, read-out: concentration in serum
  concentration at 1 h: 285 ± 29.1 ng/mL
[3]; 15 mg/kg i.v., serum, 2 h, read-out: concentration in serum
  concentration at 2 h: 79.6 ± 26.9 ng/mL
[3]; 15 mg/kg i.v., serum, 6 h, read-out: concentration in serum
  concentration at 6 h: 2.08 ± 1.12 ng/mL
[3]; ipsilateral ischemic hemisphere (IL brain), 15 mg/kg i.v. at reperfusion 1 h after MCAO, ipsilateral ischemic hemisphere, 5 min, read-out: concentration in IL brain
  concentration at 5 min: 6650 ± 591 ng/g
[3]; ipsilateral ischemic hemisphere (IL brain), 15 mg/kg i.v. at reperfusion 1 h after MCAO, ipsilateral ischemic hemisphere, 10 min, read-out: concentration in IL brain
  concentration at 10 min: 5799 ± 29.8 ng/g
[3]; ipsilateral ischemic hemisphere (IL brain), 15 mg/kg i.v. at reperfusion 1 h after MCAO, ipsilateral ischemic hemisphere, 30 min, read-out: concentration in IL brain
  concentration at 30 min: 2890 ± 611 ng/g
[3]; ipsilateral ischemic hemisphere (IL brain), 15 mg/kg i.v. at reperfusion 1 h after MCAO, ipsilateral ischemic hemisphere, 1 h, read-out: concentration in IL brain
  concentration at 1 h: 1750 ± 164 ng/g
[3]; ipsilateral ischemic hemisphere (IL brain), 15 mg/kg i.v. at reperfusion 1 h after MCAO, ipsilateral ischemic hemisphere, 2 h, read-out: concentration in IL brain
  concentration at 2 h: 327 ± 57.2 ng/g
[3]; ipsilateral ischemic hemisphere (IL brain), 15 mg/kg i.v. at reperfusion 1 h after MCAO, ipsilateral ischemic hemisphere, 6 h, read-out: concentration in IL brain
  concentration at 6 h: 11.7 ± 6.43 ng/g
[3]; ipsilateral ischemic hemisphere (IL brain), 15 mg/kg i.v., IL brain
  half-life: 24.6 min
[3]; ipsilateral ischemic hemisphere (IL brain), 15 mg/kg i.v., IL brain, tissue density assumed 1 g/ml
  AUC(0-t): 5140 ± 239 ng·h/mL
[3]; 15 mg/kg i.v., Sham brain
  half-life: 39 min
[3]; 15 mg/kg i.v., Sham brain, tissue density assumed 1 g/ml
  AUC(0-t): 4580 ± 276 ng·h/mL
[3]; 15 mg/kg i.v., heart
  half-life: 40.2 min
[3]; 15 mg/kg i.v., heart, tissue density assumed 1 g/ml
  AUC(0-t): 6480 ± 769 ng·h/mL
[3]; 15 mg/kg i.v., liver
  half-life: 42 min
[3]; 15 mg/kg i.v., liver, tissue density assumed 1 g/ml
  AUC(0-t): 8240 ± 852 ng·h/mL
[3]; 15 mg/kg i.v., serum
  AUC(0-t): 919 ± 82.2 ng·h/mL
  half-life: 22.8 min
[3]; single intravenous injection of 15 mg/kg
  time effective concentration is maintained: about 6 h
[4]; TJ-5 15 mg/kg i.v. after 1 h ischemia
  apoptosis (TUNEL) in whole brain and ischemic penumbra of the cortex: significantly reduced
[4]; TJ-5 15 mg/kg vs vehicle group
  number of neurons (NeuN) in the injured hemisphere: significantly increased
[4]; TJ-5 15 mg/kg, vs I/R group
  number of Iba-1 positive cells in cortex: significantly decreased
[5]
  LPS-induced NF-κB p65 nuclear translocation: significantly prevented
